pIC50: −log10 of the molar value.
Assays:
JAK2 = biological target: T1, JAK2 (Homo sapiens, UniProt O60674); assay: Kinobeads assay, JAK2; type: binding; settings: mixed Molt4/Ramos lysate, read-out: Inhibition values (IC50) JAK2
T1 construct: endogenous in cells; host or cells: Molt4 (ATCC CRL-1582) and Ramos (ATCC CRL-1596), mixed lysate 1:2
In short: (§1)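 IC50s come from capture competition: compound at various concentrations versus an immobilized aminopyrido-pyrimidine ligand for kinases in 1:2 Molt4/Ramos lysate (10 mg/mL), 3 h in a cold room. Captured JAK-family kinases were measured by specific-antibody dot blot with Odyssey infrared detection.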

JAK3 = biological target: T2, JAK3 (Homo sapiens, UniProt P52333); assay: Kinobeads assay, JAK3; type: binding; settings: mixed Molt4/Ramos lysate, read-out: Inhibition values (IC50) JAK3
T2 construct: endogenous in cells; host or cells: Molt4 (ATCC CRL-1582) and Ramos (ATCC CRL-1596), mixed lysate 1:2
T2 sequence (P52333 1-1124): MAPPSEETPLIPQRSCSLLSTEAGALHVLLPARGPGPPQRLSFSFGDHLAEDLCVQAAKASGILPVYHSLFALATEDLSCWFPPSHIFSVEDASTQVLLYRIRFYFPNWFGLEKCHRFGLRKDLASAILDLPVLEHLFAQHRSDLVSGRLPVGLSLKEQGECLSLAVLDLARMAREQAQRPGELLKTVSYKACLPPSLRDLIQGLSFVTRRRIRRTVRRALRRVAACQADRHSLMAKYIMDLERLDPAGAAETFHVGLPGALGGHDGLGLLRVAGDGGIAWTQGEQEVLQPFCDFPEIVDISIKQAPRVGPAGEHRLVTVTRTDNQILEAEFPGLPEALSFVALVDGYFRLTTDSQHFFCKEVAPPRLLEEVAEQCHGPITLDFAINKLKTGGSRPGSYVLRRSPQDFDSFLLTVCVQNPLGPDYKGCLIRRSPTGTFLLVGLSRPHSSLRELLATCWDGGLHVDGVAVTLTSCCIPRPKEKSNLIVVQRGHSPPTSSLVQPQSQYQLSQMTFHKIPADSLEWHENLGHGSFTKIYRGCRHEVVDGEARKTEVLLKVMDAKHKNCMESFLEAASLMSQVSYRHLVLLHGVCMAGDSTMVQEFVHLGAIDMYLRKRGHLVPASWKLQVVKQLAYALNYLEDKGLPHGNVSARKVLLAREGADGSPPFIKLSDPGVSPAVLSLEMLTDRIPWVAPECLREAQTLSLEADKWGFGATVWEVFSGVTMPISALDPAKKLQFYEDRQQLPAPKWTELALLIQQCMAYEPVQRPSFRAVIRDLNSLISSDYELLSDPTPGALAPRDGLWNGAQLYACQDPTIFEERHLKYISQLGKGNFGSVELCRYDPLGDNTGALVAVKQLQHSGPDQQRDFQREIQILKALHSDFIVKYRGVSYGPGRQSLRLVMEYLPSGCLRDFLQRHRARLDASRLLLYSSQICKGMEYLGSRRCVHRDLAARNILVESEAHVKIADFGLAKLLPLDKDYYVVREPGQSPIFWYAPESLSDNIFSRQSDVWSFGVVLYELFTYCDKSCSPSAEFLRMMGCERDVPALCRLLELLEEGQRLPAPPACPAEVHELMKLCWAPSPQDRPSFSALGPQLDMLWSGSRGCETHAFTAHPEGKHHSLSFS
In short: as §1

T1 sequence (O60674 whole entry): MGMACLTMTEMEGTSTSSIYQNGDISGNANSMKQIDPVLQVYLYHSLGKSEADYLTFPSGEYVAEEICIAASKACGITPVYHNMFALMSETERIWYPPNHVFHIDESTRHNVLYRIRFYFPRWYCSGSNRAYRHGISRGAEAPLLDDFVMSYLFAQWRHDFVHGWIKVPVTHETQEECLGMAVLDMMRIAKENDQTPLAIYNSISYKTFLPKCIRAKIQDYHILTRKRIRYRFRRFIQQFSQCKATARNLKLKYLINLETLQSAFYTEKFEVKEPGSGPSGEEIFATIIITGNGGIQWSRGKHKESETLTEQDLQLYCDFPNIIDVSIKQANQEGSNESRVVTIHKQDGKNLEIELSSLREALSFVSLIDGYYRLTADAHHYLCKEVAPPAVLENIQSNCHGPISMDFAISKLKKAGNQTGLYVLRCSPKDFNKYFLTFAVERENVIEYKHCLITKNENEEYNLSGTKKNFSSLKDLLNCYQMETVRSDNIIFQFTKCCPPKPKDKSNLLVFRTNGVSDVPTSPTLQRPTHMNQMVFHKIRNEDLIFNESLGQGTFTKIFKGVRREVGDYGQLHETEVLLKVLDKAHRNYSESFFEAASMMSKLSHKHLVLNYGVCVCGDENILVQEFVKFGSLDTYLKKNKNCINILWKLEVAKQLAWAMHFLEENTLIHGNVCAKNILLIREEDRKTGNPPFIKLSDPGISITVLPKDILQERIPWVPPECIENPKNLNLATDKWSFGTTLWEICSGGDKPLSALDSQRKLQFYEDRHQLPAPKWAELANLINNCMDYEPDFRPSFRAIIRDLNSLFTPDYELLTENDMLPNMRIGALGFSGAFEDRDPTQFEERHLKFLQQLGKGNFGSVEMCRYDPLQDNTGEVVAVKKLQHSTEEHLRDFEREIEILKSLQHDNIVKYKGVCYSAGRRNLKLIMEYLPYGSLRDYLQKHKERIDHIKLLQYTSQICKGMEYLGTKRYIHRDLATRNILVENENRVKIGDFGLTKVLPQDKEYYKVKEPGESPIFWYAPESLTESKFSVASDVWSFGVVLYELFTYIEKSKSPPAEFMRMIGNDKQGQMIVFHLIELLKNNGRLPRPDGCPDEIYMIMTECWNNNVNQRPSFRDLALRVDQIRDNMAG

| SMILES | pIC50 (JAK2) | pIC50 (JAK3) |
| --- | --- | --- |
| Cn1cc(Nc2ncc(Cl)c(N[C@H](C(=O)NCCO)c3ccccc3)n2)cn1 [Compound 46] | 5.00 to 6.00 | > 7.00 |
| O=C(NCCO)[C@@H](Nc1nc(Nc2cnn(CCO)c2)ncc1Cl)c1ccccc1 [Compound 47] | 5.00 to 6.00 | > 7.00 |
| COCCNC(=O)[C@@H](Nc1nc(Nc2cnn(CCO)c2)ncc1Cl)c1ccccc1 [Compound 48] | 5.00 to 6.00 | > 7.00 |
| Cn1cc(Nc2ncc(Cl)c(N[C@H](C(=O)N3CCCCC3)c3ccccc3)n2)cn1 [Compound 49] | ≤ 5.00 | 6.00 to 7.00 |
| OCCn1ccc(Nc2ncc(Cl)c(NC(CO)c3ccccc3F)n2)n1 (centres unmarked) [Compound 50] | ≤ 5.00 | 6.00 to 7.00 |
| O=C([C@@H](Nc1nc(Nc2cnn(CCO)c2)ncc1Cl)c1ccccc1)N1CCCCC1 [Compound 51] | ≤ 5.00 | 6.00 to 7.00 |
| Cn1cc(Nc2ncc(Cl)c(NC(CO)c3cccc(Br)c3)n2)cn1 (centres unmarked) [Compound 52] | ≤ 5.00 | 6.00 to 7.00 |
| Cn1cc(Nc2ncc(Cl)c(NC(CO)c3cccc(N4CC5(COC5)C4)c3)n2)cn1 (centres unmarked) [Compound 53] | ≤ 5.00 | 6.00 to 7.00 |
| Cn1cc(Nc2ncc(Cl)c(N[C@@H](CO)c3ccccc3)n2)cn1 [Compound 54] | ≤ 5.00 | 5.00 to 6.00 |
| COC[C@@H](Nc1nc(Nc2cnn(C)c2)ncc1Cl)c1ccccc1 [Compound 55] | ≤ 5.00 | 6.00 to 7.00 |
| NC(=O)Cn1cc(Nc2ncc(Cl)c(N[C@H](CO)c3ccccc3)n2)cn1 [Compound 56] | 5.00 to 6.00 | > 7.00 |
| CC(C)(O)Cn1cc(Nc2ncc(Cl)c(NC(CO)c3ccccc3F)n2)cn1 (centres unmarked) [Compound 57] | ≤ 5.00 | > 7.00 |
| Cn1cc(Nc2ncc(Cl)c(N[C@H](CO)c3ccccc3F)n2)cn1 [Compound 58] | 5.00 to 6.00 | > 7.00 |
| Cn1cc(Nc2ncc(Cl)c(N[C@H](C(=O)NC3CCCC3)c3ccccc3)n2)cn1 [Compound 59] | ≤ 5.00 | 6.00 to 7.00 |
| O=C(NC1CCCC1)[C@@H](Nc1nc(Nc2cnn(CCO)c2)ncc1Cl)c1ccccc1 [Compound 60] | ≤ 5.00 | 6.00 to 7.00 |
| CC(C)(O)Cn1cc(Nc2ncc(Cl)c(NC(CO)c3cccc(F)c3)n2)cn1 (centres unmarked) [Compound 61] | 5.00 to 6.00 | > 7.00 |
| CC(C)(O)Cn1cc(Nc2ncc(Cl)c(NC(CO)c3c(F)cccc3F)n2)cn1 (centres unmarked) [Compound 62] | ≤ 5.00 | > 7.00 |
| OCCn1cc(Nc2ncc(Cl)c(N[C@@H](CO)c3ccccc3)n2)cn1 [Compound 63] | ≤ 5.00 | 5.00 to 6.00 |
| OCCCn1cc(Nc2ncc(Cl)c(NC(CO)c3ccccc3F)n2)cn1 (centres unmarked) [Compound 64] | 5.00 to 6.00 | > 7.00 |
| OCC[C@@H](Nc1nc(Nc2cnn(CCO)c2)ncc1Cl)c1ccccc1 [Compound 65] | 5.00 to 6.00 | 6.00 to 7.00 |
| CNC(=O)Cn1cc(Nc2ncc(Cl)c(N[C@H](CCO)c3ccccc3)n2)cn1 [Compound 66] | 5.00 to 6.00 | 6.00 to 7.00 |
| CC(C)NC(=O)Cn1cc(Nc2ncc(Cl)c(N[C@H](CO)c3ccccc3)n2)cn1 [Compound 67] | 5.00 to 6.00 | > 7.00 |

| SMILES | pIC50 (JAK2) | pIC50 (JAK3) |
| --- | --- | --- |
| O=C(Cn1cc(Nc2ncc(Cl)c(N[C@H](CO)c3ccccc3)n2)cn1)NC1CC1 [Compound 68] | 5.00 to 6.00 | > 7.00 |
| Cn1cc(Nc2ncc(Cl)c(NC(CO)c3cccc(-c4cnn(C)c4)c3)n2)cn1 (centres unmarked) [Compound 69] | ≤ 5.00 | 6.00 to 7.00 |
| CN(CC#N)C(=O)Cn1cc(Nc2ncc(Cl)c(N[C@H](CO)c3ccccc3)n2)cn1 [Compound 70] | 5.00 to 6.00 | > 7.00 |
| Cn1cc(Nc2ncc(Cl)c(NC(CO)c3ccc(F)cc3)n2)cn1 (centres unmarked) [Compound 71] | ≤ 5.00 | 6.00 to 7.00 |
| OCCn1cc(Nc2ncc(Cl)c(NC(CO)c3ccc(F)cc3)n2)cn1 (centres unmarked) [Compound 72] | ≤ 5.00 | 6.00 to 7.00 |
| CC(C)(C(N)=O)n1cc(Nc2ncc(Cl)c(N[C@H](CO)c3ccccc3F)n2)cn1 [Compound 73] | 5.00 to 6.00 | > 7.00 |
| COc1ccccc1[C@@H](CO)Nc1nc(Nc2cnn(C)c2)ncc1Cl [Compound 74] | 5.00 to 6.00 | > 7.00 |
| OC[C@@H](Nc1nc(Nc2cn[nH]c2)ncc1Cl)c1ccccc1 [Compound 75] | 5.00 to 6.00 | > 7.00 |
| COc1ccccc1[C@@H](CO)Nc1nc(Nc2cnn(CCO)c2)ncc1Cl [Compound 76] | 5.00 to 6.00 | > 7.00 |
| OCCn1cc(Nc2ncc(Cl)c(N[C@H](CO)c3ccccc3F)n2)cn1 [Compound 77] | 5.00 to 6.00 | > 7.00 |
| NC(=O)Cn1cc(Nc2ncc(Cl)c(N[C@H](CO)c3ccccc3F)n2)cn1 [Compound 78] | 5.00 to 6.00 | > 7.00 |
| OC[C@@H](Nc1nc(Nc2cn[nH]c2)ncc1Cl)c1ccccc1F [Compound 79] | 5.00 to 6.00 | > 7.00 |
| OCCn1cc(Nc2ncc(Cl)c(N[C@H](CO)c3ccccn3)n2)cn1 [Compound 80] | 5.00 to 6.00 | > 7.00 |
| NC(=O)Cn1cc(Nc2ncc(Cl)c(N[C@H](CO)c3ccccn3)n2)cn1 [Compound 81] | 5.00 to 6.00 | > 7.00 |
| COc1cccc([C@@H](CO)Nc2nc(Nc3cnn(C)c3)ncc2Cl)c1 [Compound 82] | ≤ 5.00 | > 7.00 |
| COc1cccc([C@@H](CO)Nc2nc(Nc3cnn(CCO)c3)ncc2Cl)c1 [Compound 83] | 5.00 to 6.00 | > 7.00 |
| COc1cccc([C@@H](CO)Nc2nc(Nc3cnn(CC(N)=O)c3)ncc2Cl)c1 [Compound 84] | ≤ 5.00 | > 7.00 |
| Cc1cnc(Nc2cnn(CC(F)F)c2)nc1N[C@H](CO)c1cc(F)cc(F)c1 [Compound 167] | 5.00 to 6.00 | 6.00 to 7.00 |
| Cc1cnc(Nc2cnn(CC(F)F)c2)nc1NC(CO)c1c(F)cccc1F (centres unmarked) [Compound 168] | ≤ 5.00 | 6.00 to 7.00 |
| Cc1cnc(Nc2cnn(CC(=O)N3CCOCC3)c2)nc1NC(CO)c1c(F)cccc1F (centres unmarked) [Compound 169] | 5.00 to 6.00 | > 7.00 |
| CNC(=O)Cn1cc(Nc2ncc(Cl)c(N[C@H](CO)c3cccnc3)n2)cn1 [Compound 170] | 5.00 to 6.00 | > 7.00 |

— patent publication US20140179664A1, “Heterocyclyl Pyrimidine Analogues As JAK Inhibitors” (Cellzome Limited, priority 2011, published 2014)
